Measured values from patent US20110245192A1, “NEW ACTIVATORS FOR TREATING AND/OR PREVENTING DISEASES OR MEDICAL CONDITIONS WHICH BENEFIT FROM AN INCREASED TRANSPORT OF HYALURONAN ACROSS A LIPID BILAYER” (priority 2008, published 2011).

System: hyaluronan transport/export in fibroblasts
Test: Assay for hyaluronan transport/export activators in fibroblast cell culture (hyaluronan in culture medium by ELISA)
Type: cell-based
Conditions: 2 days at 37° C.
Description: Compound 89 activates 4,7fold, while compound 101 activates 2,4fold. The “activatory capability” as described herein is expressed as the ratio of hyaluronan exported in the presence and absence of the compound. Methods to determine the hyaluronan transport are disclosed herein, and are also disclosed in great detail in WO2005/013947.
Trypsinised fibroblasts were suspended in Dulbeccos medium at 10^5 cells/ml and 100 μl aliquots were transferred to a 96 well microtiter plate. The first row received 200 μl of the suspension and 20 μl of the activators of the invention dissolved in phosphate buffered saline at concentrations of 4 mM. A serial dilution of the activators was established by transfer of 100 μl aliquots from the first row to the following rows. All experiments were performed in duplicates. […] The cells were incubated for 2 days at 37° C. and aliquots (5 and 20 μl) of the culture medium were used for measurement of the hyaluronan concentration in the cell culture medium by an ELISA [125]. […] The adsorption was read at 490 nm. The concentrations in the samples were calculated from a logarithmic regression curve of the hyaluronan standard solutions. […]

## CC(=O)Nc1c(O)cc(O)cc1Oc1ccc(N)cc1C(=O)O [Compound 89]
  activatory capability: ratio of hyaluronan exported in the presence and absence of the compound: 4,7 fold

## CC(=O)Nc1c(O)cccc1Oc1ccc(N)cc1C(=O)O [Compound 101]
  activatory capability: ratio of hyaluronan exported in the presence and absence of the compound: 2,4 fold
